# Assay results published in US12503455B2, “Nucleic acid-binding photoprobes and uses thereof” (Arrakis Therapeutics, Inc., priority 2017, dated 2025).
# Legend:
# [1] = cited from earlier work
# Aptamer 21 = assay: Competition between Aptamer 21 photoprobes and RNA-binding ligands (RT pausing)
# Protocol: Aptamer 21 was either incubated with probe alone (ARK-581) or probe plus a 10-fold excess of RNA-binding ligand.
# Both ARK-852 and ARK-139 inhibit the photocrosslinking of probes to Aptamer 21.
# Folded RNA (1 μM) was incubated with the photoaffinity probe (10 μM) in total 25 μL of buffer (20 mM TrisHCl pH 8, 100 mM KCl, 3 mM MgCl2) with 2.5% DMSO for 30 min at 37° C. to allow binding to come to equilibrium. The sample was then irradiated with long wave UV light (˜365 nm) for 30 min in a UV crosslinker (Fisher Scientific).
# A 3.75 μL aliquot of 10 μM reverse transcription primer was added to the cross-linked RNA sample, which was then incubated for 5 min at 65° C. and then cooled on ice. The sample was then diluted to a final volume of 60 μL and final buffer concentration of 1× Protoscript-II buffer (New England Biolabs), 0.5 mM dNTPs, 10 mM DTT, 0.4 U/μL RNase Inhibitor (New England Biolabs), and 10 U/μL Protoscript-II (New England Biolabs). The reaction was incubated at 45° C. for 2 h, 65° C. for 20 min, and then 4° C.
# The RNA was hydrolyzed by the addition of 4.8 μL of 2.5 M NaOH and heating at 95° C. for 5 min. The reaction was quenched by the addition of 0.9 μL of acetic acid. The cDNA was precipitated by the addition of 6.6 μL of 3 M sodium acetate pH 5 and 181 μL ethanol, cooling to −80° C. for 1 h, and then centrifuging at 20,500×g at 4° C. for 30 min. The cDNA pellet was washed twice with 500 μL of 70% ethanol and then air dried for 5 min.
# The cDNA pellet was resuspended in 12 μL of 1×TBE-urea sample loading buffer (Bio-Rad) and heated to 95° C. for 5 min. The sample was then run on a pre-cast 8.6×6.7 cm TBE-urea 10% PAGE gel (Bio-Rad) at 120 V until the lower bromophenol blue dye reached the bottom of the gel. The gel was stained with 1×SYBR-gold (Invitrogen) in 1×TBE buffer at room temperature for 20 min covered from light. The gel fluorescence was imaged on an Azure c600 instrument.
# Aptamer 21 RNA = assay: Online SEC-LCMS binding to Aptamer 21 RNA; details: for % of binding: RNA 1 uM
# Protocol: Online SEC-LCMS has been used to study the binding to Aptamer 21 RNA against I-1 (ARK-139).
# The RNA concentration was 1 μM and the ligand concentration ranged from 0.1 to 10 μM in an appropriate buffer (TRIS-HCl 20 mM pH 8.0, MgCl2 3 mM, KCl 100 mM).
# The RNA/ligand mixtures were incubated at room temperature for 20 minutes in a 96-well plate format, then this plate was loaded into an autosampler linked to the chromatography system fitted with a reusable SEC column for rapid separation of target/ligand complexes from unbound components. RNA/ligand complexes in SEC eluent were monitored by UV detection, and an automated valving system directed the RNA peak to a reverse phase chromatography column for dissociation, desalting, and elution of any ligands into an ESI-MS system for identification.
# All liquid chromatographic components were HP1200 modules. The mass spectrometer was the Waters LCT premier instrument operated in positive electrospray (ES+) TOF-MS mode. The mass range acquired was 80-1000 m/z in 0.25 s. The SEC column was 50×4.6 mm polyhydroxyethyl column. The SEC mobile phase was 50 mM phosphate buffer with 200 mM NaCl, pH=7.0. The LC column was a 2.1×50 mm C18 Phenomenex column. The gradient LC mobile phase A was 0.1% formic acid in water and B was acetonitrile/water with 0.1% formic acid. The run time was 7.9 min.
# Binding of I-1 to Aptamer 21 was measured. SEC/LCMS conditions for this experiment were: [I-1]=5 uM, [RNA]=1 uM, Buffer=Tris-HCl 20 mM, KCl 100 mM, 3 mM MgCl2.
# Aptamer-21 = details: Lau et al., ACS Nano 2011; read-out: Kd of Aptamer-21 against compound 1b; cited from earlier work
structure (smiles),measurement,setting,value
COC(=O)C1=C(COCc2cn(CCOCCOCCO)nn2)NC(c2ccncc2)=NC1c1ccc(F)cc1Cl (racemic) [I-1],water solubility,[1],water-soluble
same,inhibition of photocrosslinking of ARK-581 to Aptamer 21,Aptamer 21; 10-fold excess of RNA-binding ligand over probe,efficiently inhibited
same,inhibition of photocrosslinking of probes to Aptamer 21 (RT pausing competition assay),Aptamer 21; FIG. 65,inhibit
same,% of binding,Aptamer 21 RNA; ARK-000139 conc 0.1 μM,72.5%
same,% of binding,Aptamer 21 RNA; ARK-000139 conc 0.5 μM,36.5%
same,% of binding,Aptamer 21 RNA; ARK-000139 conc 1 μM,33.6%
same,% of binding,Aptamer 21 RNA; ARK-000139 conc 3 μM,22.4%
same,% of binding,Aptamer 21 RNA; ARK-000139 conc 10 μM,8.9%
same,binding to Aptamer 21 by SEC-MS,Aptamer 21 RNA; data not shown,confirmed
same,Kd,Aptamer-21,50 nM
